Read-outs that look alike come from different tables or passages of the source.
Tests used:
[1] = system: HCV genotype 1a (H77 strain) replicon in HUH-7 cells; experiment: HCV replicon luciferase reporter assay, genotype 1a; type: cell-based; conditions: Hepatitis C virus, Huh-7, 72 h, 3 days incubation, read-out: LE_1a (EC50, range)
Procedure, shortened: (§1)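 Replicon inhibition for both genotypes was measured as Renilla luciferase signal (EnduRen, 7.5 μM final, 2 h) after 3-day, 37° C exposure of replicon-bearing HUH-7 cells in 4% FCS DMEM, 0.5% DMSO. The 1b construct carries S1179I; the 1a H77 construct carries P1496L and S2204I. Twenty-point, 3-fold dilutions were fitted four-parametrically for EC50, and CC50 was taken from multiplexed Cell Titer-Blue.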

[2] = system: HCV genotype 1b (Con1) replicon in HUH-7 cells; experiment: HCV replicon luciferase reporter assay, genotype 1b; type: cell-based; conditions: Hepatitis C virus, Huh-7, 72 h, 3 days incubation, read-out: LE_1b (EC50, range)
Procedure, shortened: as §1

[3] = GETYPE1A, HCV genotype 1a replicon luciferase
[4] = GETYPE1B, HCV genotype 1b replicon luciferase
[5] = HCV genotype 1a replicon luciferase
[6] = HCV genotype 1b replicon luciferase

Row | Compound | EC50 [1, 5] [nM] | EC50 [2, 6] [nM] | further results
1 | COc1ccc2c(O[C@@H]3C[C@H]4C(=O)N[C@]5(C(=O)NS(=O)(=O)C6(CF)CC6)C[C@H]5/C=C\CC[C@@H](C)C[C@@H](C)[C@H](NC(=O)OC(C)(C)C(F)(F)F)C(=O)N4C3)cc(-c3ccc(OC(C)C)cc3)nc2c1 [Compound 4148] | – | – | EC50 [1, 3]: < 5.46 nM; EC50 [2, 4]: < 5.46 nM
2 | CC[C@@H]1C[C@H](C)CC/C=C\[C@@H]2C[C@@]2(C(=O)NS(=O)(=O)C2(C)CC2)NC(=O)[C@@H]2C[C@@H](Oc3nccc4cc(OC)ccc34)CN2C(=O)[C@H]1NC(=O)OC(C)(C)C(F)F [Compound 5523, 1,1-difluoro-2-methylpropan-2-yl((2R,6S,7R,9R,13aS,14aR,16aS,Z)-7-ethyl-2-((6-methoxyisoquinolin-1-yl)oxy)-9-methyl-14a-(((1-methylcyclopropyl)sulfonyl)carbamoyl)-5,16-dioxo-1,2,3,5,6,7,8,9,10,11,13a,14,14a,15,16,16a-hexadecahydrocyclopropa[e]pyrrolo[1,2-a][1,4]diazacyclopentadecin-6-yl)carbamate] | 1.01 to 5 | 0.51 to 1 | –
3 | CC[C@@H]1C[C@H](C)CC/C=C\[C@@H]2C[C@@]2(C(=O)NS(=O)(=O)C2(C)CC2)NC(=O)[C@@H]2C[C@@H](Oc3ncc(N(C)C)c4cc(OC)ccc34)CN2C(=O)[C@H]1NC(=O)OC(C)(C)C(F)(F)F [Compound 4241] | – | – | EC50 [1, 3]: 1.01 to 5 nM; EC50 [2, 4]: 1.01 to 5 nM
4 | [2H]C([2H])([2H])C(OC(=O)N[C@@H]1C(=O)N2C[C@H](Oc3ncc(OC)c4ccc(F)cc34)C[C@H]2C(=O)N[C@]2(C(=O)NS(=O)(=O)C3(C)CC3)C[C@H]2/C=C\CC[C@@H](C)C[C@H]1CC)(C([2H])([2H])[2H])C(F)(F)F [Compound 5453] | 1.01 to 5 | 0.51 to 1 | –
5 | COc1cc2c(OC)cnc(O[C@@H]3C[C@H]4C(=O)N[C@]5(C(=O)NS(=O)(=O)C6(CO)CC6)C[C@H]5/C=C\CC[C@H](C)C[C@@H](C)[C@H](NC(=O)OC(C)(C)C)C(=O)N4C3)c2cc1F [Compound 4123, tert-butyl (2R,6S,7R,9S,13aS,14aR,16aS,Z)-2-(7-fluoro-4,6-dimethoxyisoquinolin-1-yloxy)-14a-(1-(hydroxymethyl)cyclopropylsulfonylcarbamoyl)-7,9-dimethyl-5,16-dioxo-1,2,3,5,6,7,8,9,10,11,13a,14,14a,15,16,16a-hexadecahydrocyclopropa[e]pyrrolo[1,2-a][1,4]diazacyclopentadecin-6-ylcarbamate] | 4.82 to 103 | 4.82 to 103 | –
6 | COCCOc1cnc(O[C@@H]2C[C@H]3C(=O)N[C@]4(C(=O)NS(=O)(=O)C5(C)CC5)C[C@H]4/C=C\CC[C@H](C)C[C@@H](C)[C@H](NC(=O)OC(C)(C)C(F)(F)F)C(=O)N3C2)c2ccccc12 [Compound 1037, 1,1,1-trifluoro-2-methylpropan-2-yl((2R,6S,7R,9S,13aS,14aR,16aS,Z)-2-((4-(2-methoxyethoxyl)isoquinolin-1-yl)oxy)-7,9-dimethyl-14a-(((1-methylcyclopropyl)sulfonyl)carbamoyl)-5,16-dioxo-1,2,3,5,6,7,8,9,10,11,13a,14,14a,15,16,16a-hexadecahydrocyclopropa[e]pyrrolo[1,2-a][1,4]diazacyclopentadecin-6-yl)carbamate] | – | – | EC50 ([1]; HCV genotype 1a replicon luciferase assay, range class): 4.82 to 103 nM; EC50 ([2]; HCV genotype 1b replicon luciferase assay, range class): 4.82 to 103 nM
7 | COc1ccc2c(O[C@@H]3C[C@H]4C(=O)N[C@]5(C(=O)NS(=O)(=O)C6(F)CC6)C[C@H]5/C=C\CC[C@@H](C)C[C@@H](C)[C@H](NC(=O)c5ccccc5F)C(=O)N4C3)nccc2c1 [Compound 4029] | < 5.46 | < 5.46 | –
